Drawing on US20060173015A1, “Cyclohexyldiamines as selective alpha 1a/1d adrenoreceptor antagonists for the treatment of benign prostatic hypertrophy and lower urinary tract symptoms” (priority 2004, published 2006), this text covers Ki and Kd for 15 compounds.

In one experiment the target is T1, α1b-AR (Homo sapiens, UniProt P35368).
T1 sequence (P35368 1-520): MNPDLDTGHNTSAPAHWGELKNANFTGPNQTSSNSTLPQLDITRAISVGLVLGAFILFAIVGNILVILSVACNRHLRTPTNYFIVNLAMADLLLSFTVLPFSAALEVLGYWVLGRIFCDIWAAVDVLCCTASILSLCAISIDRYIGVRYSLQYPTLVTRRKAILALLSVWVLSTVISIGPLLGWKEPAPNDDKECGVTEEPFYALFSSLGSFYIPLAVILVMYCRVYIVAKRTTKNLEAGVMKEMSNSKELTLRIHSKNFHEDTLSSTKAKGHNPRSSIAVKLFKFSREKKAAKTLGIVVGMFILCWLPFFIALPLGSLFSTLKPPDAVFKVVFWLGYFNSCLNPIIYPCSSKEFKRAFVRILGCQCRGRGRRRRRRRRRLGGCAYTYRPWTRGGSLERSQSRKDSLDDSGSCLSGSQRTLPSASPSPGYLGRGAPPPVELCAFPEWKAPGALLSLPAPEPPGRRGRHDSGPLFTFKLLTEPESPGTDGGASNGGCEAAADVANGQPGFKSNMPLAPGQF
The experiment is described as follows: α1-Adrenergic receptor radio-ligand (125I-HEAT) binding assay, α1b subtype. The following applies: for Ki: Receptor Binding, Ki α1b-AR, COS-7 cell membranes, 125I-HEAT.

A further experiment concerns the target T2, α1d-AR (Homo sapiens, UniProt P25100).
T2 construct: expressed in transfected cells; host or cells: COS-7
T2 sequence (P25100 1-572): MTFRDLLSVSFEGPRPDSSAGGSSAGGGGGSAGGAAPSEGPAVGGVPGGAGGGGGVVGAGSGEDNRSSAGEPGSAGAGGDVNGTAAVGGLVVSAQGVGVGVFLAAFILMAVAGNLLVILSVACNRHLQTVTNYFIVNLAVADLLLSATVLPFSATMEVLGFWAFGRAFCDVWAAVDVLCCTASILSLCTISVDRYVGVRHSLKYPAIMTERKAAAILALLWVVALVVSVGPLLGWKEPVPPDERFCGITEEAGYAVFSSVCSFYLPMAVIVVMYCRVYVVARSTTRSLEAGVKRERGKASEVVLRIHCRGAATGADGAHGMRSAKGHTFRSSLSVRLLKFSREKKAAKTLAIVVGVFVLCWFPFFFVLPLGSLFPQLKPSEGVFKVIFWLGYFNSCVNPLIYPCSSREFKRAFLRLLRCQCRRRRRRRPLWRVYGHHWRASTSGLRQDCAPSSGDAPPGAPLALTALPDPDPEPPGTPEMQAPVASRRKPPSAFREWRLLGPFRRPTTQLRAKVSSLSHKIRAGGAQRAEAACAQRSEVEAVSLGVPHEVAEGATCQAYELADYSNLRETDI
The experiment is described as follows: α1-Adrenergic receptor radio-ligand (125I-HEAT) binding assay, α1d subtype. The settings on record: for Ki: COS-7 cell membranes, 125I-HEAT, read-out: Receptor Binding, Ki α1d-AR. Here is the method: (§1) α1-Adrenergic Receptor Binding Assay: Preparation of COS Cell Membranes
(§2) Membranes were prepared from COS-7 cells that had been transfected with one of the three α1-AR subtypes by the following method. COS cells from ten 100 mm tissue culture plates were scraped into 5 mL TE (50 mM Tris-HCl, 5 mM EDTA, pH 7.4). The cell suspension was disrupted with a Brinkman Polytron, setting 8, for 10 sec. The disrupted cells were centrifuged at 1000×g for 10 min at 4° C. Supernatants were centrifuged at 34,500×g for 20 min at 4° C. The membrane pellets were suspended in 2 mL TNE (50 mM Tris-HCl, 5 mM EDTA, 150 mM NaCl, pH7.4). An aliquot of the membrane suspension was stored at −70° C. until use. The protein concentration was determined using the BioRad DC protein assay kit following membrane solubilization with Triton X-100.
(§3) Radio-Ligand Binding Assay
Triplicate determinations of radio-ligand binding in the presence of increasing: concentrations of testing compound were made. The reagents were added to 96-well polypropylene plate wells using the Biomek 1000 robot (Beckman Instruments). […] The plate was incubated at rt for 1 hr. The contents of the wells were filtered through a GF/C membrane Unifilter plate (Packard Instruments) using the Packard Filtermate cell harvester. The filter plates were dried in a vacuum oven for 30 min at 40° C. 25 μL Microscint 20 liquid scintillation fluid (Packard Instuments) was added to each well. The radioactive content was analyzed in the TopCount microplate scintillation counter (Packard Instruments).

A further experiment addresses T3, α1a-AR (Homo sapiens, UniProt P35348).
T3 construct: expressed in transfected cells; host or cells: COS-7
T3 sequence (P35348 1-466): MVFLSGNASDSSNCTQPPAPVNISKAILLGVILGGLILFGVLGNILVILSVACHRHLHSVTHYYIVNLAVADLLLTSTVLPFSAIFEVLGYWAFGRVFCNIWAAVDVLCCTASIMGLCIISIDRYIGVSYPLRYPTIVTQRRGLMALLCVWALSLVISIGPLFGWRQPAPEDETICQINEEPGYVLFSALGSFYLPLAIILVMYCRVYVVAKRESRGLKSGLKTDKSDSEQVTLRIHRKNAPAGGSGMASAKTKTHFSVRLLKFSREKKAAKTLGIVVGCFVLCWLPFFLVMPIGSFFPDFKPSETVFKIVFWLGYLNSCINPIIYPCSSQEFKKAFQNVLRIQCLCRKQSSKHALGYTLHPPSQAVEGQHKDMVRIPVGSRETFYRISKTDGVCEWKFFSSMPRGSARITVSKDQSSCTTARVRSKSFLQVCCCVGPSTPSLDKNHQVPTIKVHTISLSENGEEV
The experiment is described as follows: α1-Adrenergic receptor radio-ligand (125I-HEAT) binding assay, α1a subtype. The settings on record: for Ki: COS-7 cell membranes, 125I-HEAT. Here is the method: as §1, §2, §3
Triplicate determinations of radio-ligand binding in the presence of increasing: concentrations of testing compound were made. The reagents were added to 96-well polypropylene plate wells using the Biomek 1000 robot (Beckman Instruments). Each assay well contained 140 μl TNE, 25 μL ^125I-HEAT (specific activity 2200 Ci/mmol, Dupont-NEN, 50 pM final), 10 μL testing compound dissolved in DMSO (1 pM to 10 μM in half-log increments, final), and 25 μL appropriate α1-AR membrane subtype suspension in TNE (0.5 ng/μL for the α1a and α1b subtypes and 13 ng/μL for the α1d subtype). The plate was incubated at rt for 1 hr. The contents of the wells were filtered through a GF/C membrane Unifilter plate (Packard Instruments) using the Packard Filtermate cell harvester. The filter plates were dried in a vacuum oven for 30 min at 40° C. 25 μL Microscint 20 liquid scintillation fluid (Packard Instuments) was added to each well. The radioactive content was analyzed in the TopCount microplate scintillation counter (Packard Instruments).

As to `CC(C)Oc1ccccc1N1CCN([C@H]2CC[C@@H](NS(=O)(=O)c3cccc4cccnc34)CC2)CC1` [Cpd 58, Quinoline-8-sulfonic acid N-cis-{4-[4-(2-isopropoxy-phenyl)-piperazin-1-yl]-cyclohexyl}-amide], the Ki on α1b-AR came to 116 nM; at α1d-AR it was 4.3 nM; on α1a-AR, 8.3 nM.
As to `CC(C)Oc1ccccc1N1CCN([C@H]2CC[C@H](NS(=O)(=O)c3ccc(OC(F)(F)F)cc3)CC2)CC1` [Cpd 45, N-trans-{4-[4-(2-Isopropoxy-phenyl)-piperazin-1-yl]-cyclohexyl}-4-trifluoromethoxy-benzenesulfonamide], the inhibition constant Ki was 1250 nM on α1b-AR, 111 nM on α1d-AR and 100 nM at α1a-AR.
On to `COc1ccc(Cl)cc1S(=O)(=O)N[C@H]1CC[C@H](N2CCN(c3ccc(F)cc3OC(C)C)CC2)CC1` [Cpd 78, 5-Chloro-N-trans-{4-[4-(4-fluoro-2-isopropoxy-phenyl)-piperazin-1-yl]-cyclohexyl}-2-methoxy-benzenesulfonamide], for which the results for the Ki on α1b-AR, on α1d-AR and on α1a-AR were 44 nM, 47 nM and 340 nM, respectively.
Regarding `COc1ccc(Cl)cc1S(=O)(=O)N[C@H]1CC[C@@H](N2CCN(c3ccc(F)cc3OCC(F)(F)F)CC2)CC1` [Cpd 76, 5-Chloro-N-cis-(4-{4-[4-fluoro-2-(2,2,2-trifluoro-ethoxy)-phenyl]-piperazin-1-yl}-cyclohexyl)-2-methoxy-benzenesulfonamide], the Ki is 196 nM on α1b-AR, 8.5 nM on α1d-AR and 17 nM on α1a-AR.
Regarding `COc1ccc(S(=O)(=O)N[C@H]2CC[C@H](N3CCN(c4ccccc4OCC(F)(F)F)CC3)CC2)cc1OC` [Cpd 70], the inhibition constant (Ki) on α1b-AR amounted to 34.8 nM; on α1d-AR, 8.3 nM; at α1a-AR, 54.2 nM.
As to `CC(C)Oc1ccccc1N1CCN([C@H]2CC[C@@H](NS(=O)(=O)c3ccc(F)cc3)CC2)CC1` [Cpd 10, 4-Fluoro-N-cis-{4-[4-(2-isopropoxy-phenyl)-piperazin-1-yl]-cyclohexyl}-benzenesulfonamide], the Ki at α1b-AR stood at 150 nM; on α1d-AR, 4.8 nM; on α1a-AR it was 5.6 nM.
Taken in the same sequence, the figures for `CC(C)Oc1ccccc1N1CCN([C@H]2CC[C@H](NS(=O)(=O)c3ccccc3S(C)(=O)=O)CC2)CC1` [Cpd 33, N-trans-{4-[4-(2-Isopropoxy-phenyl)-piperazin-1-yl]-cyclohexyl}-2-methanesulfonyl-benzenesulfonamide] were 118 nM, 2.8 nM and 12.5 nM.
On to `COc1ccc(C(F)(F)F)cc1S(=O)(=O)N[C@H]1CC[C@H](N2CCN(c3ccccc3OC(C)C)CC2)CC1` [Cpd 48, N-trans-{4-[4-(2-Isopropoxy-phenyl)-piperazin-1-yl]-cyclohexyl}-2-methoxy-5-trifluoromethyl-benzenesulfonamide], for which the Ki was found to be 258 nM at α1b-AR, 1.5 nM on α1d-AR and 24.5 nM on α1a-AR.
Turning to `COc1ccc(S(=O)(=O)N[C@H]2CC[C@H](N3CCN(c4cc(F)ccc4OCC(F)(F)F)CC3)CC2)cc1OC` [Cpd 84, N-trans-(4-{4-[5-Fluoro-2-(2,2,2-trifluoro-ethoxy)-phenyl]-piperazin-1-yl}-cyclohexyl)-3,4-dimethoxy-benzenesulfonamide], the Ki on α1b-AR was 220 nM; on α1d-AR, 36.1 nM; on α1a-AR, 33 nM.
`COc1ccc(S(=O)(=O)N[C@H]2CC[C@H](N3CCN(c4ccc(F)cc4OC(C)C)CC3)CC2)cc1OC` [Cpd 72, N-trans-{4-[4-(4-Fluoro-2-isopropoxy-phenyl)-piperazin-1-yl]-cyclohexyl}-3,4-dimethoxy-benzenesulfonamide]: the inhibition constant (Ki) was found to be 146 nM at α1b-AR, 12.2 nM on α1d-AR and 9 nM on α1a-AR.
As to `COc1ccc([N+](=O)[O-])cc1S(=O)(=O)N[C@H]1CC[C@@H](N2CCN(c3ccccc3OC(C)C)CC2)CC1` [Cpd 19, N-cis-{4-[4-(2-Isopropoxy-phenyl)-piperazin-1-yl]-cyclohexyl}-2-methoxy-5-nitro-benzenesulfonamide], the Ki at α1b-AR was 85.3 nM; on α1d-AR it was 2.2 nM; at α1a-AR, 4.3 nM.
Regarding `CC(C)Oc1ccccc1N1CCN([C@H]2CC[C@H](NS(=O)(=O)c3ccc(F)cc3)CC2)CC1` [Cpd 38, 4-Fluoro-N-trans-{4-[4-(2-isopropoxy-phenyl)-piperazin-1-yl]-cyclohexyl}-benzenesulfonamide], the Ki on α1b-AR came out at 301 nM; on α1d-AR, 36 nM; on α1a-AR, 1.3 nM.
For the compound `O=C1c2ccccc2CCC1CNCCc1ccc(O)c(I)c1` (stereo not drawn) [125I-HEAT, reference compound], the equilibrium dissociation constant (Kd) on α1b-AR (read-out: Kd used in the Ki calculation, α1b-AR, radio-ligand) was 79 nM; on α1d-AR (radio-ligand, read-out: Kd used in the Ki calculation, α1d-AR), 50 nM; on α1a-AR (radio-ligand, read-out: Kd used in the Ki calculation, α1a-AR), 81.5 nM.
As to `O=S(=O)(N[C@H]1CC[C@H](N2CCN(c3ccc(F)cc3OCC(F)(F)F)CC2)CC1)c1cc(Cl)ccc1F` [Cpd 82, 5-Chloro-2-fluoro-N-trans-(4-{4-[4-fluoro-2-(2,2,2-trifluoro-ethoxy)-phenyl]-piperazin-1-yl}-cyclohexyl)-benzenesulfonamide], the values for the Ki at α1b-AR, at α1d-AR and on α1a-AR were 442 nM, 240 nM and 52 nM, respectively.
The matching figures for `CC(C)Oc1ccccc1N1CCN([C@H]2CC[C@H](NS(=O)(=O)c3cccnc3)CC2)CC1` [Cpd 64, Pyridine-3-sulfonic acid N-trans-{4-[4-(2-isopropoxy-phenyl)-piperazin-1-yl]-cyclohexyl}-amide]: 192 nM, 5.5 nM and 5.8 nM.
